Test results: publication PMC12356897 (Nature Communications, 2025)

What was measured:
[1] = tested on: 11 human cyclins (D1/2/3, E1/2, A1/2, B1/2/3 and F); assay: SIMBA, cyclin binding and specificity across the cyclin panel; assay type: cell-based; conditions: result in words; for cyclin specificity in SIMBA: 13-mer peptides centered on P0; for cyclin binding in the tiled library SIMBA screen: tiled 16-mer peptides
human cyclin A2 = assay: Proteomic peptide phage display; assay type: binding; conditions: result in words; HD2 library of 16-mer peptides, four selection rounds
human cyclin B1 = assay: Proteomic peptide phage display; assay type: binding; conditions: result in words; HD2 library of 16-mer peptides, four selection rounds

Sequence | cyclin specificity in SIMBA [1] | also measured
SNARRSLNFGGST [SCAPER] | bound preferentially to cyclin A2 | 
QLRRQLSFSED [MICAL3] |  | cyclin binding in the tiled library SIMBA screen [1]: strong B1-binding motif
SLVVGKLSFDSSP [CDC42EP1] | bound cyclin B1 specifically | 
VKTKKRLNFDDKV [CENPC] | bound preferentially to cyclin A2 | 
VSAVQKLDFSDTMVQQ [PKN2 peptide] |  | enrichment in ProP-PD selection, cyclin A2 (human cyclin A2): dominated; enrichment in ProP-PD selection, cyclin B1 (human cyclin B1): dominated
SKACRRLFGPVDS [CDKN1A (p21)] | bound all cyclin types except B | 
YKVKRRLVFGADD [MuHV-1 M97] | bind to members of all four families | 

Second part, led by results:

cyclin specificity in SIMBA [1] | Sequence | also measured
bind to members of all four families | KAIRKLHFEDE [INSM1] | cyclin binding in the tiled library SIMBA screen [1]: cyclin D1-binding motif
bound cyclin B1 specifically | DDIVSKLVFDFVE [DBF4] | 
bound preferentially to cyclin A2 | PRARKRLELGNLG [ORC1] | cyclin specificity in SIMBA ([1]; listed as ORC1 RxL): cyclin A-specific
bound preferentially to cyclin A2 | PPARRRLRLSVDE [CDT1] | 
bound cyclin B1 specifically | HELFQRLDFDNDG [DNAH7] | 
